Values of other authors in patent US20120277147A1, “PREVENTION OF HYPOGLYCAEMIA IN DIABETES MELLITUS TYPE 2 PATIENTS” (priority 2011, published 2012).

Tested on: patients with type 2 diabetes treated with metformin and a sulfonylurea
Settings: 30 week; patients unable to achieve adequate glycemic control with combined metformin-sulfonylurea therapy

## Exendin-4: native exendin peptide, SEQ ID NO: 2 (39 AS), which can lower blood glucose concentration
  Effect on HbA1c: significantly reduced HbA1c
